Results as given in ChEMBL document CHEMBL1158470, “9-(Arenethenyl)purines as dual Src/Abl kinase inhibitors targeting the inactive conformation: design, synthesis, and biological evaluation” (J Med Chem, 2009).
Calls of active or inactive are those of the source. The calls are words filed in the database; no cut-off is given here.

Experiments:
[1] = Antiproliferative activity against mouse BA/F3 cells after 3 days by MTS assay
[2] = Half life in CD rat at 5 mg/kg, iv; type: ADME, organism-based; set-up: dose 5 mg/kg, route intravenous; settings: in vivo
[3] = system: K562; test: Antiproliferative activity against human K562 cells after 3 days by MTS assay
[4] = Clearance in CD rat at 5 mg/kg, iv; type: ADME, organism-based; set-up: dose 5 mg/kg, route intravenous; settings: in vivo
[5] = AUC (0 to 24 hrs) in CD rat at 15 mg/kg, po; type: ADME, organism-based; set-up: time < 24 hr, dose 15 mg/kg, route oral; settings: plasma
[6] = Volume of distribution in CD rat at 5 mg/kg, iv; type: ADME, organism-based; set-up: dose 5 mg/kg, route intravenous; settings: in vivo
[7] = Cmax in CD rat at 15 mg/kg, po; type: ADME, organism-based; set-up: dose 15 mg/kg, route oral; settings: in vivo
[8] = Oral bioavailability in CD rat at 15 mg/kg; type: ADME, organism-based; settings: in vivo
[9] = Tmax in CD rat at 15 mg/kg, po; type: ADME, organism-based; set-up: dose 15 mg/kg, route oral; settings: in vivo
[10] = Antitumor activity against mouse BA/F3 cells expressing wild type Bcr-Abl xenografted in CB17 SCID mouse assessed as increase in mouse survival at 10 mg/kg, po administered on day 3 once daily for 19 days; type: functional; settings: BaF3
[11] = Cmax in mouse at 10 mg/kg, po; type: ADME, organism-based; set-up: dose 10 mg/kg, route oral; settings: in vivo
[12] = system: NIH3T3; test: Antitumor activity against in po dosed mouse NIH/3T3 cells expressing Src Y527F mutant xenografted in CD1 nude mouse assessed as tumor shrinkage administered daily for 21 days; type: functional, organism-based
[13] = AUC (0 to 24 hrs) in mouse at 10 mg/kg, po; type: ADME, organism-based; set-up: time < 24 hr, dose 10 mg/kg, route oral; settings: plasma
[14] = Tmax in mouse at 10 mg/kg, po; type: ADME, organism-based; set-up: dose 10 mg/kg, route oral; settings: in vivo
[15] = Antitumor activity against mouse BA/F3 cells expressing wild type Bcr-Abl xenografted in CB17 SCID mouse assessed as median survival time at 10 mg/kg, po administered on day 3 once daily for 19 days; type: functional, BaF3
[16] = system: NIH3T3; test: Antitumor activity against in mouse NIH/3T3 cells expressing Src Y527F mutant xenografted in CD1 nude mouse assessed as complete tumor regression at 100 mg/kg, po administered daily for 21 days; type: functional, organism-based; set-up: dose 100 mg/kg
[17] = Oral bioavailability in mouse at 10 mg/kg; type: ADME, organism-based; settings: in vivo
[18] = Antiproliferative activity against mouse BA/F3 cells expressing Bcr-Abl T315I mutant after 3 days by MTS assay; settings: BaF3, 72 h
[19] = molecular target: Proto-oncogene tyrosine-protein kinase Src (Homo sapiens, UniProt P12931)
Description: Inhibition of human Src kinase by TR-FRET assay

[20] = molecular target: Tyrosine-protein kinase ABL1 (Homo sapiens, UniProt P00519)
Description: Inhibition of wild type human Abl kinase by TR-FRET assay

[21] = Antiproliferative activity against mouse BA/F3 cells expressing wild type Bcr-Abl after 3 days by MTS assay
[22] = Antiproliferative activity against mouse BA/F3 cells expressing Bcr-Abl E255K mutant after 3 days by MTS assay; settings: BaF3, 72 h
[23] = Antiproliferative activity against mouse BA/F3 cells expressing Bcr-Abl G250E mutant after 3 days by MTS assay; settings: BaF3, 72 h
[24] = Antiproliferative activity against mouse BA/F3 cells expressing Bcr-Abl L248R mutant after 3 days by MTS assay; settings: BaF3, 72 h
[25] = Antiproliferative activity against mouse BA/F3 cells expressing Bcr-Abl Q252H mutant after 3 days by MTS assay; settings: BaF3, 72 h
[26] = Antiproliferative activity against mouse BA/F3 cells expressing Bcr-Abl Y253H mutant after 3 days by MTS assay; settings: BaF3, 72 h
[27] = system: BaF3; test: Antitumor activity against mouse BA/F3 cells expressing wild type Bcr-Abl xenografted in CB17 SCID mouse assessed as median survival time at 75 mg/kg, po administered on day 3 once daily for 19 days relative to control; type: functional, organism-based; set-up: dose 75 mg/kg
[28] = system: BaF3; test: Antitumor activity against mouse BA/F3 cells expressing wild type Bcr-Abl xenografted in CB17 SCID mouse assessed as increase in mouse survival at 75 mg/kg, po administered on day 3 once daily for 19 days relative to control; type: functional, organism-based; set-up: dose 75 mg/kg

Sequence of Proto-oncogene tyrosine-protein kinase Src (P12931 2-536 limits assumed): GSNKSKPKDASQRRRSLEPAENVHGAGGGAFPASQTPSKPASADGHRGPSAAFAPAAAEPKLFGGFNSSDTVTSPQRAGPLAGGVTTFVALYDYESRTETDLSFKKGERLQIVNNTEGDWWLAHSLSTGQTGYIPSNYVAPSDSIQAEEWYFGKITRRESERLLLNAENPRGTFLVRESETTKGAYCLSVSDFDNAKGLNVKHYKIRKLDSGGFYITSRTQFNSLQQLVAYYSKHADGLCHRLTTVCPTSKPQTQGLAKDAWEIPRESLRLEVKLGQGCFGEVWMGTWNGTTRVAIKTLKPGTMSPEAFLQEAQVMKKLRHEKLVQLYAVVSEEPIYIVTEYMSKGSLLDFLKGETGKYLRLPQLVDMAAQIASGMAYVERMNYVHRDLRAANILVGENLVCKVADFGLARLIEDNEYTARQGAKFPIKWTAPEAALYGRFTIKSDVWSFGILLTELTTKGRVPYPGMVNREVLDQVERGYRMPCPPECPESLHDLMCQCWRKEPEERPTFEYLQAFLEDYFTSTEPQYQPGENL
Sequence of Tyrosine-protein kinase ABL1 (P00519 whole entry): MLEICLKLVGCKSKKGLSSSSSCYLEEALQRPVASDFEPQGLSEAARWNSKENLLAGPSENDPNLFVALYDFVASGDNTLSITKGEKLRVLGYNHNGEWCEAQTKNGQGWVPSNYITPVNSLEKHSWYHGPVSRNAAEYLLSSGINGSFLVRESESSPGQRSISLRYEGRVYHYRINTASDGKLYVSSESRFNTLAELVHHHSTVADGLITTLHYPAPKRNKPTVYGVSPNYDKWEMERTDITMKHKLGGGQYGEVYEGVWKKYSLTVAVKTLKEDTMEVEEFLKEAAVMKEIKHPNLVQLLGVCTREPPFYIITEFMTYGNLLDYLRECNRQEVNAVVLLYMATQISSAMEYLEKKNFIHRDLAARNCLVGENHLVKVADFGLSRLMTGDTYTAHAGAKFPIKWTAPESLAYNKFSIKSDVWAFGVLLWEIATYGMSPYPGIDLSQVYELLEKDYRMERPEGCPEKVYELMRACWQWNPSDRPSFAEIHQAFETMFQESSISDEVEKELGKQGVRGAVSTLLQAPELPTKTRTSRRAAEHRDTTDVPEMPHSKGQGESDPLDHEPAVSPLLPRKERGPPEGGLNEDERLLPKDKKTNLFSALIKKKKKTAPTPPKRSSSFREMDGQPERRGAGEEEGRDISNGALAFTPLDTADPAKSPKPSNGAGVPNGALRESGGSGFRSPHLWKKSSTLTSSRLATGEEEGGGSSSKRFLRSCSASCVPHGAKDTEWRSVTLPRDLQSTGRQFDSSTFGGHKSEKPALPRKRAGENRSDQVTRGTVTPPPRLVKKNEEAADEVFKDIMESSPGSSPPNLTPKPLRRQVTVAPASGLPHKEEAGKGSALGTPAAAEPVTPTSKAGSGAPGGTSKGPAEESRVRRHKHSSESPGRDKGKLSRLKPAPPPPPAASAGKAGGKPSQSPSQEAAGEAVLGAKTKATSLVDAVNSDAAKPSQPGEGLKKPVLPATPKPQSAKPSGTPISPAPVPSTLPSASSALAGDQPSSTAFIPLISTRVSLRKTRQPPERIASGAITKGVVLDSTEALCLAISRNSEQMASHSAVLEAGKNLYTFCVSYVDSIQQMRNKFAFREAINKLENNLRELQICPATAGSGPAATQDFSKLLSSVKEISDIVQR

SMILES	IC50 ([1]; Mus musculus, BaF3, 72 h) [nM]	half-life [2] [h]	IC50 ([3]; Homo sapiens, K562, 72 h) [nM]	clearance [4] [mL/min/kg]	Vd [6] [L/kg]	Cmax [7] [ng/mL]	Tmax [9] [h]	further results
Cc1ccc(C(=O)Nc2cc(C(C)(C)C)on2)cc1/C=C/n1cnc2c(NC3CC3)ncnc21	> 10000	3.7	15	15	4.87	1040	1	AUC(0-t) at 24 h [5]: 7540 ng·h/mL; bioavailability [8]: 45%
Cc1ccc(C(=O)Nc2cccc(C(F)(F)F)c2)cc1/C=C/n1cnc2c(NC3CC3)ncnc21	4350	–	17	–	–	–	–	–
Cc1ccc(C(=O)Nc2cc(C(F)(F)F)ccn2)cc1/C=C/n1cnc2c(NC3CC3)ncnc21	4890	5.7	6.1	0.667	0.34	23500	2	survival at 10 mg/kg [10]: 75%; Cmax [11]: 3100 ng/mL; Activity [12]: Dose-dependent effect; AUC(0-t) at 24 h [13]: 21200 ng·h/mL; Tmax [14]: 2 h; AUC(0-t) at 24 h [5]: 428000 ng·h/mL; MST [15]: 35 days; Activity [16]: Active; bioavailability [8]: 116%; bioavailability [17]: 100%; IC50 [18]: 2750 nM
Cc1ccc(NC(=O)c2cccc(C(F)(F)F)c2)cc1/C=C/n1cnc2c(Nc3ccccn3)ncnc21	6260	–	181	–	–	–	–	IC50 [19]: 201 nM; IC50 [20]: 243 nM
Cc1ccc(NC(=O)c2cccc(C(F)(F)F)c2)cc1/C=C/n1cnc2c(Nc3ccc(P(C)(C)=O)cc3)ncnc21	7600	3.1	0.95	13.2	3.54	63	1	AUC(0-t) at 24 h [5]: 146 ng·h/mL; bioavailability [8]: 0.8%
Cc1ccc(C(=O)Nc2cc(C(F)(F)F)ccn2)cc1/C=C/n1cnc2cncnc21	–	–	–	–	–	–	–	IC50 ([21]; Mus musculus, BaF3, 72 h): 5 nM
Cc1ccc(C(=O)Nc2cc(-n3ccnc3)cc(C(F)(F)F)c2)cc1/C=C/n1cnc2c(NC3CC3)ncnc21	7120	–	5.4	–	–	–	–	IC50 [18]: 298 nM
Cc1ccc(NC(=O)c2cccc(C(F)(F)F)c2)cc1/C=C/n1cnc2c(Nc3ccncn3)ncnc21	2070	–	62	–	–	–	–	–
Cc1ccc(NC(=O)c2cccc(C(F)(F)F)c2)cc1/C=C/n1cnc2c(Nc3cccnc3)ncnc21	> 10000	2.4	2.7	8.17	1.7	387	2	IC50 ([21]; baf3): Not Active; AUC(0-t) at 24 h [5]: 3310 ng·h/mL; bioavailability [8]: 11%
Cc1ccc(C(=O)Nc2cccc(C(C)(C)C)c2)cc1/C=C/n1cnc2c(NC3CC3)ncnc21	2550	2.1	22	29.8	5.31	100	1	AUC(0-t) at 24 h [5]: 297 ng·h/mL; bioavailability [8]: 3.5%
Cc1cn(-c2cc(NC(=O)c3ccc(C)c(/C=C/n4cnc5c(NC6CC6)ncnc54)c3)cc(C(F)(F)F)c2)cn1	6460	8.3	4.3	1	0.78	1750	2	IC50 [22]: 24 nM; Cmax [11]: 1020 ng/mL; IC50 [23]: 63 nM; AUC(0-t) at 24 h [13]: 6930 ng·h/mL; IC50 [24]: 64 nM; IC50 [25]: 42 nM; Tmax [14]: 1 h; AUC(0-t) at 24 h [5]: 17200 ng·h/mL; IC50 [26]: 44 nM; bioavailability [8]: 7%; IC50 [18]: 422 nM
Cc1ccc(NC(=O)Nc2cccc(C(F)(F)F)c2)cc1/C=C/n1cnc2c(NC3CC3)ncnc21	–	–	> 1000	–	–	–	–	IC50 [19]: 517 nM
CNc1ncnc2c1ncn2/C=C/c1cc(NC(=O)c2cccc(C(F)(F)F)c2)ccc1C	> 10000	2.95	67	6.33	1.6	–	–	–
CNc1ncnc2c1ncn2CCc1cc(NC(=O)c2cccc(C(F)(F)F)c2)ccc1C	9680	–	–	–	–	–	–	IC50 ([3]; k562): Not Active; IC50 [19]: 300 nM
Cc1cn(-c2cc(NC(=O)c3ccc(C)c(Nc4nccc(-c5cccnc5)n4)c3)cc(C(F)(F)F)c2)cn1	–	–	–	–	–	–	–	Activity [27]: Active; Activity [28]: Active
Cc1ccc(NC(=O)c2cccc(C(F)(F)F)c2)cc1/C=C/n1cnc2c(Nc3ccncc3)ncnc21	635	6.7	3.7	16	9.01	483	6	–
Cc1ccc(C(=O)Nc2ncc(C(C)(C)C)s2)cc1/C=C/n1cnc2c(NC3CC3)ncnc21	7120	–	292	–	–	–	–	IC50 [19]: 310 nM; IC50 [20]: 267 nM
Cc1ccc(C(=O)Nc2cc(N3CCN(C)CC3)cc(C(F)(F)F)c2)cc1/C=C/n1cnc2c(NC3CC3)ncnc21	543	–	14	–	–	–	–	–
Cc1ccc(C(=O)Nc2cc(C(F)(F)F)ccc2F)cc1/C=C/n1cnc2c(NC3CC3)ncnc21	7660	–	68	–	–	–	–	IC50 [20]: 236 nM
Cc1ccc(C(=O)Nc2cc(C(C)(C)C)nn2C)cc1/C=C/n1cnc2c(NC3CC3)ncnc21	9030	–	35	–	–	–	–	IC50 [20]: 146 nM
Cc1ccc(C(=O)Nc2cccc(C(C)C)c2)cc1/C=C/n1cnc2c(NC3CC3)ncnc21	8320	–	63	–	–	–	–	–
Cc1cn(-c2cc(NC(=O)c3ccc(C)c(/C=C/n4cnc5cncnc54)c3)cc(C(F)(F)F)c2)cn1	–	–	–	–	–	–	–	IC50 ([21]; Mus musculus, BaF3, 72 h): 7 nM
Cc1ccc(C(=O)Nc2ccc(Cl)c(C(F)(F)F)c2)cc1/C=C/n1cnc2c(NC3CC3)ncnc21	2410	–	69	–	–	–	–	–
Cc1ccc(NC(=O)c2cccc(C(F)(F)F)c2)cc1/C=C/n1cnc2c(NCCCN(C)C)ncnc21	–	–	–	–	–	–	–	IC50 ([1]; baf3): Not Active; IC50 ([3]; k562): Not Active; IC50 ([21]; baf3): Not Active; IC50 [19]: 159 nM; IC50 [20]: 157 nM
Cc1ccc(C(=O)Nc2cc(N3CCOCC3)cc(C(F)(F)F)c2)cc1/C=C/n1cnc2c(NC3CC3)ncnc21	2520	–	17	–	–	–	–	–
Cc1ccc(NC(=O)c2cccc(C(F)(F)F)c2)cc1/C=C/n1cnc2c(NC3CC3)ncnc21	7860	4	95	3.17	1.08	2610	1	AUC(0-t) at 24 h [5]: 32200 ng·h/mL; bioavailability [8]: 40%
